Data from patent publication US20050129662A1 (priority 2002, published 2005).

What was measured:
Format in all cases: in vivo
[1] = system: peronospora (Plasmopara viticola); assay: Open-field fight against peronospora on muscat vine (Examples 2-6); conditions: 11 interventions
Source text: (§1) All tables and related theses reproduced herein result from an experimental activity carried out in the open field following precise protocols and experimental guidelines.
(§2) The aim of this experimental activity was that of verifying the possibility of reducing the amount of the chemical formulation employed, while keeping the activity of same unchanged towards adversities to be fought (peronospora, mildew and Panonychus ulmi), thanks to addition of the adjuvant, preferably soybean oil.
(§3) The methodologies for detection of the efficiency results were selected depending on: the pathology to be fought, infection, % spreading of the disease for peronospora, mildew and acid rot, and depending on the count of the mite number per leaf in the fight tests against Panonychus ulmi.
(§4) Among the great number of statistical tests interpreting the experimental data items, Duncan test in the scientific field is considered as one of the best evaluation instruments for significance of the experimental data items. […] Example: 12.5a 0.9b 0.3b

[2] = system: Lactuga sativa; assay: Composite chemical weedkilling, spraying on trays of lettuce plants (Examples 12-15); conditions: 1 intervention; for % devitalization T + 14: 14 days from treatment; for % devitalization T + 27: 27 days from treatment
Source text: • Treatment: 300 l/ha of solution were sprayed • Experimental pattern: spraying on 4 trays, each containing 8 lettuce plants • Flower survey: carried out after 14 days from treatment (T), (T+14), and after 27 days (T+27), stating the devitalization degree in percentage
Test target: Composite chemical weedkilling (Lactuga sativa)
With reference to the active ingredients employed in examples 12-15, it was an aim of this experimental research to verify the influence of the emulsion addition on the herbicide activity towards a target weed belonging to the compositae family. By virtue of the high herbicide activity of weedkillers, when applied in the amounts on the label, and in order to highlight possible efficiency variations of same among the different theses dealt with, all active ingredients were employed alone in amounts reduced by ⅓ and reduced by ⅓ in an extemporaneous mixture with the emulsion being the object of the present invention. Example: should the active ingredients have been employed to the amounts reproduced on the label, it would have been very likely to obtain a 100% devitalization of the weed with the active ingredient alone and in a mixture with the emulsion.
As to the methodologies for efficiency detection, a visual estimation was selected, by allocating a % value to the overall devitalizing activity observed on the target plant.

[3] = system: Panonychus ulmi; assay: Open-field fight against Panonychus ulmi on muscat vine (Examples 8-10); conditions: 1 intervention
Source text: as §1, §2, §3, §4

[4] = system: mildew (Uncinula necator); conditions: muscat vine; 4795 g or ml/ha; 6 interventions

CO/C=C(/C(=O)OC)c1ccccc1Oc1cc(Oc2ccccc2C#N)ncn1 [Azoxystrobin]
% infection on bunches ([1]; 250 g or ml/ha): 0.0 b %
% spreading on bunches ([1]; 250 g or ml/ha): 0.0 b %
Action Degree ([1]; 250 g or ml/ha): 100

CCCCCCCC(=O)Oc1c(Br)cc(C#N)cc1Br [Bromoxynil octanoate]
% devitalization T + 14 ([2]; 356 g or ml/ha): 56.0%
% devitalization T + 27 ([2]; 356 g or ml/ha): 67.5%

O=C(O)c1nc(Cl)ccc1Cl [Clopyradil]
% devitalization T + 14 ([2]; 100 g or ml/ha): 85.0%
% devitalization T + 27 ([2]; 100 g or ml/ha): 87.5%

COc1ccc(C(=CC(=O)N2CCOCC2)c2ccc(Cl)cc2)cc1OC [Dimethomorph]
% infection on bunches ([1]; 1050 g or ml/ha): 0.0 b %
% spreading on bunches ([1]; 1050 g or ml/ha): 0.0 b %
Action Degree ([1]; 1050 g or ml/ha): 100

O=C(NC(=O)c1c(F)cccc1F)Nc1ccc(Oc2ccc(C(F)(F)F)cc2Cl)cc1F [Flufenoxuron]
Action Degree ([3]; 50 g or ml/ha): 68.0
Mites per leaf 1 ([3]; 50 g or ml/ha): 1.1 b
Mites per leaf 2 ([3]; 50 g or ml/ha): 3.0 b

O=C1c2ccccc2C(=O)N1SC(Cl)(Cl)Cl [Folpet]
% infection on bunches ([1]; 1200 g or ml/ha): 0.0 b %
% spreading on bunches ([1]; 1200 g or ml/ha): 0.0 b %
Action Degree ([1]; 1200 g or ml/ha): 100

O=C(O)CNCP(=O)(O)O [Gliphosate]
% devitalization T + 14 ([2]; 360 g or ml/ha): 32.0%
% devitalization T + 27 ([2]; 360 g or ml/ha): 90.0%

C[C@@H]1[C@@H](c2ccc(Cl)cc2)SC(=O)N1C(=O)NC1CCCCC1 [Hexythiazox]
Action Degree ([3]; f.c. 30 g or ml/ha): 91.6
Mites per leaf 1 ([3]; f.c. 30 g or ml/ha): 0.0 b
Mites per leaf 2 ([3]; f.c. 30 g or ml/ha): 0.6 b

O=c1[nH]c2c(c(=O)n1C1CCCCC1)CCC2 [Lenacil]
% devitalization T + 14 ([2]; 150 g or ml/ha): 11.0%
% devitalization T + 27 ([2]; 150 g or ml/ha): 30.0%

S1SSSSSSS1 [Sulphur]
% infection on bunches [4]: 2.2 b %
% spreading on bunches [4]: 12.5 bd %
Action Degree [4]: 85.7

CCc1nn(C)c(C(=O)NCc2ccc(C(C)(C)C)cc2)c1Cl [Tebufenpyrad]
Action Degree ([3]; 125 g or ml/ha): 80.8
Mites per leaf 1 ([3]; 125 g or ml/ha): 0.4 b
Mites per leaf 2 ([3]; 125 g or ml/ha): 1.1 b

Fosetyl-Aluminium
% infection on bunches ([1]; 960 g or ml/ha): 0.3 b %
% spreading on bunches ([1]; 960 g or ml/ha): 0.8 b %
Action Degree ([1]; 960 g or ml/ha): 87.2

Mancozeb
% infection on bunches ([1]; 1470 g or ml/ha): 0.2 b %
% spreading on bunches ([1]; 1470 g or ml/ha): 0.3 b %
Action Degree ([1]; 1470 g or ml/ha): 97.4
